Test results as given in publication PMC2358973, “A Cysteine Protease Is Critical for Babesia spp. Transmission in Haemaphysalis Ticks” (PLoS Pathogens, 2008).

Molecular target: T1, longipain (Haemaphysalis longicornis, UniProt A1IHG0)
T1 construct: gene HlCath; partial coding region (pPICZC) expressed in Pichia pastoris GS115, HiTrap chelating column purified; precursor 341 residues with 17-residue signal peptide
Assay: inhibition of fluorogenic substrate hydrolysis
Assay type: biochemical
Conditions: read-out: Inhibition (%) relative to control / Z-F-R-MCA
Description: inhibition of fluorogenic substrate hydrolysis on longipain

T1 sequence (A1IHG0 22-341 limits assumed): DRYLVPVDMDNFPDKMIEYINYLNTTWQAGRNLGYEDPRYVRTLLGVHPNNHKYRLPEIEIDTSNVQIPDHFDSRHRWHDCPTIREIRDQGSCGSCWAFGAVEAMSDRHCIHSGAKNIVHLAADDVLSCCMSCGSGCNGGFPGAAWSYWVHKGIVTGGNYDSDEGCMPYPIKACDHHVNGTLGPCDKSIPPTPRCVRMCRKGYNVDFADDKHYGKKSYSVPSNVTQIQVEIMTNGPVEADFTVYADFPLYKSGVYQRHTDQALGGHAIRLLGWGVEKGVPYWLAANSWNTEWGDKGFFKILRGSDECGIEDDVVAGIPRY

For CC(C)C[C@H](NC(=O)[C@@H]1O[C@H]1C(=O)O)C(=O)NCCCCNC(=N)N [E-64], the inhibition at 10 µM was 84 ± 0.2%.
